In the OligoGym collection:
Bases are written 5' to 3'; sugars and linkages follow in the same order, as letters with counts (s phosphorothioate, o phosphodiester; PS: all linkages phosphorothioate). The collection does not say whether C is 5-methylated. l = locked nucleic acid (LNA); d = 2'-deoxy (DNA)

Assay: rat primary cortical neurons, FLIPR, 25 uM ASO

First: CTAATATTATAACCATCAAC (sugars l3 d14 l3, PS)
Second: TCCACTAACCAATATAAC (sugars l3 d12 l3, PS)
The calcium oscillation score of the first is higher: 82 % of control for the first, 76.5 % of control for the second.

Going from “AAATCTATAATAACCACCAC (sugars l3 d14 l3, PS)” to “CACAATCTAACTATTAAC (sugars l3 d12 l3, PS)”, the calcium oscillation score falls from 80.2 % of control to 76.5 % of control.

Compared with “CACAACTATTAAATACCAAC (sugars l3 d14 l3, PS)”, “TAACTAACTTAACTCAAC (sugars l3 d12 l3, PS)” is lower in calcium oscillation score: 83.8 % of control for the first, 74.7 % of control for the second.

For “CAAATCATCCATCTATAAAC (sugars l4 d12 l4, PS)”, the calcium oscillation score was 88.8 % of control.
